Experimental data from patent US20150017673A1, “COMPOSITIONS AND METHODS FOR DRUG-SENSITIZATION OR INHIBITION OF A CANCER CELL” (priority 2012, published 2015).
Where two headings read alike, the source gives them in different places.

What was measured:
[1] = test system: myeloid leukemia cells HL-60; assay: Cell growth assay on HL-60 cells; assay type: cell-based; conditions: for IC50: Homo sapiens
Method: (§1) Compositions were tested on CHOP-resistant G3 NHL cells that had been cultivated in RPMI medium for five days. Prior to assay, the cells were counted by haemocytometer and cell concentration standardized to 625,000 cells/ml. Test drugs were solubilized in 100% DMSO and then diluted to final assay concentration with 0.1M phosphate buffered saline (PBS) and a final DMSO concentration of 0.5%. Cells were added to assay plates containing the test drugs (rifabutin+148 ng/ml, 74 ng/ml, 37 ng/ml, or 0 ng/ml doxorubicin) and allowed to incubate for 96 hours at 37° C. and 5% CO2. The metabolic dye rezasurin was added to the wells of the assay plate at a final concentration of 20 μg/ml and the plates were incubated for an additional 24 hours. The plates were then read in a BMG Polarstar plate reader at wavelength (573-605) and the data plotted as OD versus increasing dilutions (i.e. decreasing total amounts) of rifabutin derivative concentration.
(§2) Additional cell lines used include: ovarian cancer OVCAR-8, T lymphoblastoid leukemia MOLT-4, dexamethasone-resistant multiple myeloma MM.1R, myeloid leukemia cells HL-60, osteosarcoma cells U-2 OS, and myeloma RPMI 8226.

[2] = test system: myeloma RPMI 8226; assay: Cell growth assay on RPMI 8226 cells; assay type: cell-based; conditions: for IC50: Homo sapiens
Method: as §1, §2

[3] = test system: lymphoma cell line G3; assay: Cell growth assay (resazurin fluorescence) on CHOP-resistant G3 NHL cells; assay type: cell-based, human; conditions: for Magnitude of potentiation in combination with doxorubicin: G3, lymphoma B cells
Method: as §1

[4] = test system: multi-drug resistant ovarian carcinoma cell line SK-OV3; assay: Cell growth assay on SK-OV3 cells; assay type: cell-based, human; conditions: for Magnitude of potentiation in combination with doxorubicin: SK-OV3, ovarian carcinoma; for IC50: Homo sapiens, SK-OV-3
Method: as §1
(§3) In these experiments, the following cell lines were used: CHOP-resistant NHL cell line G3, CHOP-sensitive NHL cell line CRL2631, the multi-drug resistant sarcoma cell line MES-SA-Dx5; multi-drug-resistant breast cancer cell line MDA-MB-231, multi-drug resistant ovarian carcinoma cell line SK-OV3, multi-drug resistant ovarian cancer cell line NCI/ADR-RES, drug-sensitive ovarian cancer cell line OVCAR-5, and multi-drug resistant ovarian cancer cell line OVCAR-3. […]

[5] = test system: drug-sensitive ovarian cancer cell line OVCAR-5; assay: Cell growth assay on OVCAR-5 cells; assay type: cell-based; conditions: OVCAR-5, ovarian carcinoma
Method: as §1
(§4) In these experiments, the following cell lines were used: CHOP-resistant NHL cell line G3, CHOP-sensitive NHL cell line CRL2631, the multi-drug resistant sarcoma cell line MES-SA-Dx5; multi-drug-resistant breast cancer cell line MDA-MB-231, multi-drug resistant ovarian carcinoma cell line SK-OV3, multi-drug resistant ovarian cancer cell line NCI/ADR-RES, drug-sensitive ovarian cancer cell line OVCAR-5, and multi-drug resistant ovarian cancer cell line OVCAR-3.
as §2

[6] = test system: primary human fibroblasts; conditions: with and without 2 uM Dox
[7] = test system: ovarian cancer OVCAR-8; assay: Cell growth assay on OVCAR-8 cells; assay type: cell-based; conditions: for IC50: Homo sapiens
Method: as §1, §2

[8] = test system: osteosarcoma cells U-2 OS; assay: Cell growth assay on U-2 OS cells; assay type: cell-based; conditions: for IC50: Homo sapiens, U2OS
Method: as §1, §2

[9] = test system: multi-drug resistant sarcoma cell line MES-SA-Dx5; assay: Cell growth assay on MES-SA-Dx5 cells; assay type: cell-based; conditions: MES-SA-Dx5, uterus sarcoma
Method: as §1, §4, §2

[10] = test system: multi-drug-resistant breast cancer cell line MDA-MB-231; assay: Cell growth assay on MDA-MB-231 cells; assay type: cell-based; conditions: MDA-MB-231, breast carcinoma
Method: as §1, §4, §2

[11] = test system: multi-drug resistant ovarian cancer cell line OVCAR-3; assay: Cell growth assay on OVCAR-3 cells; assay type: cell-based; conditions: OVCAR-3, ovarian carcinoma
Method: as §1, §3

[12] = test system: multi-drug resistant ovarian cancer cell line NCI/ADR-RES; assay: Cell growth assay on NCI/ADR-RES cells; assay type: cell-based; conditions: NCI/ADR-RES, ovarian carcinoma
Method: as §1, §4, §2

[13] = mice treated with RTI-79 with or without DOX
Method: Swiss mice were dosed with levels equal to and exceeding that of intended doses.

[14] = test system: multi-drug resistant ovarian cancer cell line (NCI/ADR-RES); assay: NCI/ADR-RES xenograft efficacy studies in nude mice; assay type: in vivo; conditions: DOXIL 7 mg/kg i.v. + RTI-79 25 mg/kg oral
Source text: In a sixth efficacy study, we generated xenografts of multi-drug resistant ovarian cancer cell line (NCI/ADR-RES) by implantation of NCI/ADR-RES cell xenografts in the left and right flanks of nude mice, resulting in two tumors per mice. […] Tumor size was monitored.
In a seventh efficacy study, we generated xenografts of multi-drug resistant ovarian cancer cell line (NCI/ADR-RES) by implantation of NCI/ADR-RES cells xenografts in the left and right flanks of nude mice, resulting in two tumors per mouse. […] Tumor size was monitored.

[15] = test system: ROS in G3 lymphoma cells; assay: Intracellular ROS (CellROX, flow cytometry) in G3 cells; assay type: cell-based, human; conditions: for total intracellular ROS: 10 uM, 2 hrs
Method: (§5) Cells were then stained with the fluorescent ROS indicator, CellROX, and subjected to flow cytometry to quantitate total intracellular ROS.
The electron transport chain (ETC) is known to be a primary generator of ROS in the cell. Most of the ROS is generated by Complexes I and III of the ETC Inhibition of Complex I results in electrons piling up and leaking to react with oxygen to produce ROS.
(§6) All samples were analyzed at the same time in flow cytometry.

[16] = test system: ROS in ADR-RES ovarian cells; assay: Intracellular ROS (CellROX, flow cytometry) in ADR-RES cells; assay type: cell-based; conditions: 10 uM, 2 hrs
Source text: as §5

[17] = test system: ROS in OVCAR8 ovarian cells; assay: Intracellular ROS (CellROX, flow cytometry) in OVCAR8 cells; assay type: cell-based; conditions: 10 uM, 2 hrs, degree much less than in resistant lines
Source text: as §5

[18] = test system: calcium in G3 cells; assay: Calcium mobilization (Fluo-4AM, flow cytometry); assay type: cell-based, human; conditions: for calcium mobilization: Dox-resistant cells (G3R, 10R, WSUR), 10 uM, 2 hrs, FIG. 41B/41C
Method: MDR/P-gp activity is closely associated with calcium status in the cell, so calcium modulators were tested for effects on ROS. […] Relatively Dox-sensitive lymphoma (CRL2631, 10S, WSU) and ovarian carcinoma (OVCAR8) and more Dox-resistant lymphoma (G3R,10R, WSUR) and ovarian carcinoma (ADR) were treated with 10 uM […] for 2 hrs. […] Cells were co-stained with the cell-permeable red fluorescent ROS indicator, CellROX, and cell-permeable green fluorescent calcium indicator, Fluo-4AM, and then subjected to flow cytometry to quantitate changes in ROS and calcium levels.
as §6

[19] = test system: MMP2; assay: MMP2 secretion ELISA in U2-OS cells; assay type: cell-based; conditions: 5 uM RTI-79, U2-OS cells; reduced from 22.4
[20] = test system: VEGF; assay: VEGF secretion ELISA in U2-OS cells; assay type: cell-based; conditions: RTI-79, U2-OS cells; decrease from 998
[21] = Time to maximal RTI-79 plasma concentration; assay type: in vivo; conditions: after administration
[22] = biological target: ABCB1 pumps (Homo sapiens, UniProt P08183)
Chain of ABCB1 pumps (P08183 whole entry): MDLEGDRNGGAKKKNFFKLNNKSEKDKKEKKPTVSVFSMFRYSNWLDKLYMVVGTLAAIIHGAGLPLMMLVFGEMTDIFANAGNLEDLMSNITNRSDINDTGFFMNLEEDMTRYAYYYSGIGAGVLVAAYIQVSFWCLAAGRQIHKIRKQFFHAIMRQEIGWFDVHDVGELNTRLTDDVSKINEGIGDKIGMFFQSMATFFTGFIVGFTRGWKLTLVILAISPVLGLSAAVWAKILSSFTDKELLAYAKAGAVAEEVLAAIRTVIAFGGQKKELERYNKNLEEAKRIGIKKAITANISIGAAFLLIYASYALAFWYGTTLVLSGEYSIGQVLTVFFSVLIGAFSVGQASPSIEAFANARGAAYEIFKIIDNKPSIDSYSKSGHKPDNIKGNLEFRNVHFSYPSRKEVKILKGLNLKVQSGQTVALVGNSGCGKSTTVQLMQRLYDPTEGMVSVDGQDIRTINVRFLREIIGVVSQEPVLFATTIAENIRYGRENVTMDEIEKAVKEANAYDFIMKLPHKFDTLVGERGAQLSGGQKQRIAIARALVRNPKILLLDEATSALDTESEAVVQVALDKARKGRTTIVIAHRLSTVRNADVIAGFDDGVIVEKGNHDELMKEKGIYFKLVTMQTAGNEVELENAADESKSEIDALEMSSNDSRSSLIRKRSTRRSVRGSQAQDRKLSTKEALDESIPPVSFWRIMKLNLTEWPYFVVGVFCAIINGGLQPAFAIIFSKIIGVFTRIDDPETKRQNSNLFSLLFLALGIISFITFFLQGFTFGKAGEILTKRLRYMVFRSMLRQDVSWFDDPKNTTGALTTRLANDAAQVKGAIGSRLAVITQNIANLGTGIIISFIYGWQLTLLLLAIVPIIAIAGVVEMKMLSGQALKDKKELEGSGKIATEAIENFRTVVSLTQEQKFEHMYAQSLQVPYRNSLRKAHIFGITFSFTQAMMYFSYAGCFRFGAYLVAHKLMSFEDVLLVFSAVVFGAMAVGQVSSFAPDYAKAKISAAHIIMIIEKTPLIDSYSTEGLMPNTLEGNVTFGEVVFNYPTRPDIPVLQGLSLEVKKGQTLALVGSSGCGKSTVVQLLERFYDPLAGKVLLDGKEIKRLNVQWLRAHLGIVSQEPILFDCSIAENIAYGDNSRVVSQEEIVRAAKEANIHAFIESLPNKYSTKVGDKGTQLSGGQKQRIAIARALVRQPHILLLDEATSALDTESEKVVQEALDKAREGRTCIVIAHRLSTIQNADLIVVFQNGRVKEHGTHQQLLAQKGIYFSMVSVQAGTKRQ

[23] = therapeutic drug alone, read-out: IC50
[24] = therapeutic drug with Rifabutin, read-out: IC50 (μM) with Rifabutin
[25] = analog alone, lymphoma cell line G3, read-out: IC50
[26] = with 1 μM doxorubicin, lymphoma cell line G3, read-out: IC50 (μM) with doxorubicin (1 μM)

CC(=O)O[C@H]1C(=O)[C@@]2(C)[C@H]([C@H](OC(=O)c3ccccc3)[C@]3(O)C[C@H](OC(=O)[C@H](O)[C@@H](NC(=O)c4ccccc4)c4ccccc4)C(C)=C1C3(C)C)[C@]1(OC(C)=O)CO[C@@H]1C[C@@H]2O [Paclitaxel, paclitaxel]
IC50 [1, 23]: 0.4 µM | IC50 [1, 24]: 0.2 µM | Fold increase in potency ([1]; with vs without Rifabutin): 2 fold | IC50 [2, 23]: 1 µM | IC50 [2, 24]: 0.89 µM | Fold increase in potency ([2]; with vs without Rifabutin): 1.1 fold

COC1C=COC2(C)Oc3c(C)c(O)c4c(c3C2N)C2=NC3(CCN(C(=O)OCC(C)C)CC3)NC2=C(NC(=O)C(C)=CC=CC(C)C(O)C(C)C(O)C(C)C(OC(C)=O)C1C)C4=O (stereo not drawn) [RTI-176, 11-deoxy-11-amino-4-deoxy-3,4[2-spiro-[1-(isobutyloxycarbonyl)-piperidin-4-yl]]-(1H)-imidazo-(2,5-dihydro)rifamycin S]
Magnitude of potentiation in combination with doxorubicin [3]: +++ (potentiation greater than 5 fold increase) | IC50 [3, 25]: > 64 µM | Fold increase in potency over DOX alone ([3]; lymphoma cell line G3): 5.2 fold | IC50 [3, 26]: 0.45 µM | Magnitude of potentiation in combination with doxorubicin [4]: +++ (potentiation greater than 5 fold increase) | Magnitude of potentiation in combination with doxorubicin [5]: + (potentiation between 1.2 to 2.0 fold increase) | comparative cytotoxicity to normal cells [6]: not toxic to normal cells

O=C1c2c(O)ccc(O)c2C(=O)c2c(NCCNCCO)ccc(NCCNCCO)c21 [Mitoxantrone, mitoxantrone]
IC50 ([3]; Homo sapiens, therapeutic drug alone, G3, read-out: IC50): 0.46 µM | IC50 ([3]; Homo sapiens, therapeutic drug with Rifabutin, G3, read-out: IC50 (μM) with Rifabutin): 0.04 µM | Fold increase in potency ([3]; with vs without Rifabutin, G3): 11.5 fold | IC50 ([4]; therapeutic drug alone, SK-OV3, read-out: IC50): > 32 µM | IC50 ([4]; therapeutic drug with Rifabutin, SK-OV3, read-out: IC50 (μM) with Rifabutin): 12.3 µM | Fold increase in potency ([4]; with vs without Rifabutin, SK-OV3): >2.6 fold | IC50 [7, 23]: 14 µM | IC50 [7, 24]: 3 µM | Fold increase in potency ([7]; with vs without Rifabutin): 4.7 fold | IC50 [8, 23]: 0.14 µM | IC50 [8, 24]: 0.06 µM | Fold increase in potency ([8]; with vs without Rifabutin): 2.3 fold

COC1C=COC2(C)Oc3c(C)c(O)c4c(c3C2=O)C2=NC3(CCN(C(=O)OCC(C)C)CC3)NC2=C(NC(=O)C(C)=CC=CC(C)C(O)C(C)C(O)C(C)C(OC(C)=O)C1C)C4=O (stereo not drawn) [RTI-79, 4-deoxy-3,4[2-spiro-[1-(isobutyloxycarbonyl)-piperidin-4-yl]]-(1H)-imidazo-(2,5-dihydro)rifamycin S]
Magnitude of potentiation in combination with doxorubicin [3]: ++ (potentiation between 2.1 to 5 fold increase) | IC50 [3, 25]: 43 µM | IC50 [3, 26]: 1.14 µM | Magnitude of potentiation in combination with doxorubicin [9]: ++ (potentiation between 2.1 to 5 fold increase) | Magnitude of potentiation in combination with doxorubicin [10]: + (potentiation between 1.2 to 2.0 fold increase) | Magnitude of potentiation in combination with doxorubicin [4]: +++ (potentiation greater than 5 fold increase) | Magnitude of potentiation in combination with doxorubicin [11]: + (potentiation between 1.2 to 2.0 fold increase) | Magnitude of potentiation in combination with doxorubicin [5]: + (potentiation between 1.2 to 2.0 fold increase) | Magnitude of potentiation in combination with doxorubicin [12]: ++ (potentiation between 2.1 to 5 fold increase) | heart histology (H&E), complete blood count and manual differential [13]: no significant differences | tumor volume lower than in mice receiving only DOXIL ([14]; seventh study (multiple, large tumors), after 46 days): 55% | tumor volume reduction during the course of the study ([14]; seventh study): 50% | tumor volume lower than in mice receiving only DOXIL ([14]; sixth study, after 41 days): 66% | time to first increase in ROS ([15]; 10 uM RTI-79, 0 to 30 minutes): 1 min | total intracellular ROS [15]: induced ROS | total intracellular ROS [16]: induced ROS | total intracellular ROS [17]: induced ROS | calcium mobilization [18]: induced both ROS and calcium mobilization | onset of calcium mobilization ([18]; G3 cells, 10 uM RTI-79, 0 to 30 minutes): > 15 min | MMP2 secretion [19]: 10.5 ng/million cells | VEGF secretion [20]: 436 pg/million cells | time to maximal plasma concentration [21]: ≤ 3 h | comparative cytotoxicity to normal cells [6]: not toxic to normal cells | inhibition of efflux pumps ([22]; NCI/ADR-RES and G3 cells): clear inhibition of efflux pumps | rank as inhibitor of ABCB1 among rifabutin derivatives ([22]; calcein-AM efflux): strongest inhibitor

COc1cc2c(cc1OC)CN(CCc1ccc(NC(=O)c3cccc4c(=O)c5cccc(OC)c5[nH]c34)cc1)CC2 [elacridar]
total intracellular ROS [15]: induced ROS | total intracellular ROS [16]: induced ROS | total intracellular ROS [17]: induced ROS | calcium mobilization [18]: induced calcium in a similar manner as RTI-79

COC(=O)[C@H]1[C@H]2C[C@@H]3c4[nH]c5cc(OC)ccc5c4CCN3C[C@H]2C[C@@H](OC(=O)c2cc(OC)c(OC)c(OC)c2)[C@@H]1OC [reserpine]
total intracellular ROS [15]: induced ROS | total intracellular ROS [16]: induced ROS | total intracellular ROS [17]: induced ROS
